Patent publication US20250314636A1, “METHOD OF PREPARING AND EXPANDING A POPULATION OF IMMUNE CELLS FOR CANCER THERAPY, POTENCY ASSAY FOR TUMOR RECOGNITION, BIOLOGICAL VACCINE PREPARATION AND EPITOPETARGET FOR ANTIBODIES” (FUNDAÇÃO D. ANNA DE SOMMER CHAMPALIMAUD E DR. CARLOS MONTEZ …, priority 2022, published 2025)
Read-outs that look alike come from different tables or passages of the source.

Columns and labels:
PANC-1 = experiment: Cellular recognition assay: allogeneic tumor cell line PANC-1; format: cell-based, human; conditions: CD1d restricted IFN-γ production
Procedure: All antibodies are commercially available.
siRNA against MR1 was used to silence MR1 expression using Silencer Select Pre-designed siRNA (Ambion, Thermo Fisher)). A scramble siRNA was used as negative control (Ambion, Thermo Fisher). Briefly, target cells were seeded 24 h before transfection, both siRNAs were used at 10 μM with lipofectamine RNA iMAX diluted in OptiMEM, incubated for 5 minutes, and added on top of the cells. Cells were incubated for 48 h before being used on the respective assays.
Autologous tumor, confirmed by standard histology, was viably snap frozen and then thawed to be used as targets in recognition assays once TIL had been expanded. Small autologous tumor pieces (1 mm^3) from tumor areas that contained tumor cells were tested in duplicates. TIL were incubated with tumor pieces or allogeneic tumor cells in CellGenix GMP DC media supplemented with 10% serum in the presence of IL-2 (50 IU/mL) and IL-15 (10 IU/mL) for testing MAIT—cells. TCR αβ T-cells or TCR γδ cells were tested for autologous or allogeneic tumor recognition using 100 IU IL-2/mL and 100 IU IL-15/mL; or using 100 IU IL-7/mL combined with 100 IU IL-15/mL. […]

TIL [1] = experiment: Peptide recognition assay in TIL (IFN-γ ELISA / IL-17 in supernatant, 7 days); format: cell-based, human; set-up: IFN-γ production, TIL: unit not given here; conditions: for IFN-γ production, TIL: 10e4 TIL/well co-cultured with the peptide for 7 days, supernatant tested; for Pancreatic TIL D1599 IFN-y / Pancreatic TILD1599 IL 17: Pancreatic TIL D1599; for IFN-γ production (in words): positive controls
Procedure: (§1) Peptides from tumor-associated antigens (TAAs), listed in Table 5 were placed at 1 ug/well in duplicates using anti-CD3 at 30 ng/mL as well as PHA at 5 μg/mL as positive controls.
(§2) The differences in TIL versus PBMCs can also be defined by peptide reactivity. 10e^4 TIL or 10e^4 PBMC/well were co-cultured with the peptides listed in Table 11 below for 7 days and the supernatants were tested for IFN-γ production.

PBMCs = experiment: Peptide recognition assay in PBMCs (IFN-γ in supernatant, 7 days); format: cell-based, human; conditions: for IFN-γ production, PBMCs: 10e4 PBMC/well co-cultured with the peptide for 7 days, supernatant tested; for PBMCs IFN-y: PBMCs harvested same day as skin lesion
Procedure: as §1, §2

TIL [2] = system: TIL
Procedure: TIL were seeded at 10^4/well in medium with 10% human serum added 24 h later and reduced cytokine concentrations (IL-2 at 100 IU/mL, IL-15 at 100 IU/mL). Supernatants were tested for IFN-γ production with the Human IFN-γ ELISA basic kit (HRP) (Mabtech, 3420-1H-6) according to the manufacturer's instructions. The assay can also be performed using IL-7 at 100 IU/mL and 100 IU IL-15/mL).
MHC class I responses were blocked using mAb clone w6/32 (mouse IgG2a) at 10 μg/mL, anti-HLA-DR clone L243 (mouse IgG2a) at 10 μg/mL, anti-HLA-DP clone B7/21 (mouse IgG3) at 10 μg/mL, anti-CD1d clone CD1d42 (mouse IgG1) at 10 μg/mL. Isotype control antibodies included mouse IgG2a and mouse IgG1 at 10 μg/mL. MR1 responses were blocked using the mAb clone 26.5 (mouse IgG2a) at 10 μg/mL. All antibodies are commercially available.

[3] = system: Posterior skin lesion T-cells; experiment: Peptide recognition by T-cells expanded from skin lesions (IFN-γ, 7 days); format: cell-based, human; conditions: T-cells expanded from skin lesion of patient with solid cancer
Procedure: as §1

[4] = TIL that reacted against Human U11/U12 snRNP 35 kDa protein (81-90) tailored for HLA-B3501, + anti-ABC
[5] = TIL that reacted against Human U11/U12 snRNP 35 kDa protein (81-90) tailored for HLA-B3501, + anti-DR
[6] = TIL that reacted against Human U11/U12 snRNP 35 kDa protein (81-90) tailored for HLA-B3501, no blocking antibody
[7] = TIL that reacted against SARS-CoV-2 spike (212-220) tailored for HLA-B3501, + anti-ABC
[8] = TIL that reacted against SARS-CoV-2 spike (212-220) tailored for HLA-B3501, + anti-DR
[9] = TIL that reacted against SARS-CoV-2 spike (212-220) tailored for HLA-B3501, no blocking antibody

Compound | IFN-γ production, TIL (TIL [1]) | IFN-γ production, PBMCs (PBMCs) | also measured
Cc1oncc1C(=O)Nc1ccc(C(F)(F)F)cc1 [Leflunomide] | – | – | PANC-1 recognition by γδ+ TIL after pretreatment of PANC-1 cells (PANC-1): not changed
COc1cccc2c1C(=O)c1c(O)c3c(c(O)c1C2=O)C[C@@](O)(C(=O)CO)C[C@@H]3O[C@H]1C[C@H](N)[C@H](O)[C@H](C)O1 [doxorubicin] | – | – | PANC-1 recognition by γδ+ TIL after pretreatment of PANC-1 cells (PANC-1): not changed
LDVLYPKARLAFQNM | 0 | 0 | –
LLPRGAPERQRLLPA | 0 | 0 | –
LP(V)RDLPQGF | – | – | IFN-γ Production (TIL [2]; [4]): 2062.87; IL-17 Production (TIL [2]; [4]): 12.68; IFN-γ Production (TIL [2]; [5]): 1974.19; IL-17 Production (TIL [2]; [5]): 257.46; IFN-γ Production (TIL [2]; [6]): 2611.08; IL-17 Production (TIL [2]; [6]): 238.70; IFN-γ Production (TIL [2]; [7]): 138.58; IL-17 Production (TIL [2]; [7]): 0.00; IFN-γ Production (TIL [2]; [8]): 1057.65; IL-17 Production (TIL [2]; [8]): 428.92; IFN-γ Production (TIL [2]; [9]): 1457.59; IL-17 Production (TIL [2]; [9]): 462.99
LP(V)RDLVTGF | – | – | IFN-γ Production (TIL [2]; [4]): 1908.56; IL-17 Production (TIL [2]; [4]): 81.91; IFN-γ Production (TIL [2]; [5]): 1509.64; IL-17 Production (TIL [2]; [5]): 444.01; IFN-γ Production (TIL [2]; [6]): 2444.61; IL-17 Production (TIL [2]; [6]): 330.14; IFN-γ Production (TIL [2]; [7]): 879.62; IL-17 Production (TIL [2]; [7]): 0.00; IFN-γ Production (TIL [2]; [8]): 1289.42; IL-17 Production (TIL [2]; [8]): 420.07; IFN-γ Production (TIL [2]; [9]): 1230.50; IL-17 Production (TIL [2]; [9]): 372.84
LQGGIPNGYLVLDLS | 0 | 0 | –
LVVVGAGAVGKSALT | 0 | 0 | –
LVVVGAGCVGKSALT | 0 | 0 | –
LVVVGAGRVGKSALT | 0 | 0 | –
LVVVGAGSVGKSALT | 0 | 0 | –
LVVVGAGVVGKSALT | 0 | 0 | –
LVVVGAVGVGKSALT | 0 | 0 | –
MALPTARPLLGSCGT | 0 | 0 | –
MQEALSGTPCLLGPG | 0 | 0 | –
OKT3: anti-CD3 directed antibody crosslinking the T-cell receptor, 30 ng/ml from Biolegend or Human Cell [reference compound] | 0 | 63 | Pancreatic TIL D1599 IFN-y (TIL [1]): 200 pg/mL; Pancreatic TILD1599 IL 17 (TIL [1]): 0 pg/mL; IFN-γ production (in words) (TIL [1]; TIL D1599): Strong IFN-γ production; PBMCs IFN-y (PBMCs; first PBMCs column): 0.0 pg/ml/7 days; PBMCs IFN-y (PBMCs; second PBMCs column): 0.0 pg/ml/7 days; Posterior skin lesion T-cells IFN-y [3]: 27.0 pg/ml/7 days; IFN-γ Production (TIL [2]; [6]): 3333.24; IL-17 Production (TIL [2]; [6]): 417.70; IFN-γ Production (TIL [2]; [9]): 2540.06; IL-17 Production (TIL [2]; [9]): 305.99
PMVLVGNNCDLPSRT | 0 | 0 | –
PVTSLSSASTGDTTP | 0 | 0 | –
PVTSLSSVSTGDTTP | 0 | 0 | –
PVTSPSSASTGHAIP | 0 | 0 | –
PVTSPSSESTGHAIP | 0 | 0 | –
PVTSTSSASTGHATP | 0 | 0 | –

Compound | IFN-γ production, TIL (TIL [1]) | IFN-γ production, PBMCs (PBMCs) | also measured
PVTSTSSVSTGHATP | 0 | 0 | –
SVSTMDALRGLLPVL | 0 | 0 | –
TLGEFLKLDRERAKN | 0 | 0 | –
TPLPVTDASSASTGH | 0 | 0 | –
TPLPVTDNSSASTGD | 0 | 0 | –
TPLPVTDTSSASTGD | 0 | 0 | –
TPLPVTDTSSASTGH | 0 | 0 | –
TTPLPVTIPSSASSG | 0 | 0 | –
TTPLPVTSPSSASSG | 0 | 0 | –
VTDASSASTGH | 0 | 0 | –
VTDTSSASTGH | 0 | 0 | –
WAVRPQDLDTCDPRQ | 0 | 0 | –
YEQLDVLKHKLDELY | 0 | 0 | –
YKLVVVGAAGVGKSALT | 0 | 0 | –
YKLVVVGACGVGKSALT | 0 | 0 | –
YKLVVVGADGVGKSALT | 0 | 0 | –
YKLVVVGAGGVGKSALT | 0 | 0 | –
YKLVVVGARGVGKSALT | 0 | 0 | –
YKLVVVGASGVGKSALT | 0 | 0 | –
YKLVVVGAVGVGKSALT | 0 | 0 | –
phytohemagglutinin [PHA, reference compound] | 1336 | 71 | Pancreatic TIL D1599 IFN-y (TIL [1]): 417 pg/mL; Pancreatic TILD1599 IL 17 (TIL [1]): 4 pg/mL; IL-17 production (in words) (TIL [1]; positive control, TIL D1599): only limited amount of IL-17 production; IFN-γ production (in words) (TIL [1]; TIL D1599): Strong IFN-γ production; PBMCs IFN-y (PBMCs; first PBMCs column): 165.7 pg/ml/7 days; PBMCs IFN-y (PBMCs; second PBMCs column): 165.7 pg/ml/7 days; Posterior skin lesion T-cells IFN-y [3]: 901.0 pg/ml/7 days
